Series [1] in a line: Pharmacokinetics, oral administration in rat. The format is in vivo. The following applies: p.o.
For a further series, the target named is T1, A2B (Homo sapiens, UniProt P29275).
T1 construct: CEREP
Put plainly: CEREP panel. The format is binding.

The target of another series is T2, B1 (Homo sapiens, UniProt P46663).
T2 construct: CEREP
Nature of the series: CEREP panel. The format is binding.

In a further series the target is T3, MC3 (Homo sapiens, UniProt P41968).
T3 construct: CEREP (contract assay)
T3 sequence (P41968 whole entry): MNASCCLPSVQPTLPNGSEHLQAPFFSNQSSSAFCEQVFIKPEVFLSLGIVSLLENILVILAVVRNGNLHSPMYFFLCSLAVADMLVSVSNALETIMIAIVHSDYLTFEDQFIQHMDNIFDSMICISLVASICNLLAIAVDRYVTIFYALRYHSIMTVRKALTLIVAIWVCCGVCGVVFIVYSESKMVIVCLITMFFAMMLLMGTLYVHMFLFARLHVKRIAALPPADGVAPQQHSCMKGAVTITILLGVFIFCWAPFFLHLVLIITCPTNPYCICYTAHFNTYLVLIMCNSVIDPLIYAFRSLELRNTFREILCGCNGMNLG
Nature of the series: CEREP panel. The format is binding.

Another series concerns PR. Nature of the series: CEREP panel. The format is binding. The settings on record: 10 µM.
The target of the next series is T4, MCH1 (Homo sapiens, UniProt Q99705).
T4 construct: CEREP (contract assay)
T4 sequence (Q99705 whole entry): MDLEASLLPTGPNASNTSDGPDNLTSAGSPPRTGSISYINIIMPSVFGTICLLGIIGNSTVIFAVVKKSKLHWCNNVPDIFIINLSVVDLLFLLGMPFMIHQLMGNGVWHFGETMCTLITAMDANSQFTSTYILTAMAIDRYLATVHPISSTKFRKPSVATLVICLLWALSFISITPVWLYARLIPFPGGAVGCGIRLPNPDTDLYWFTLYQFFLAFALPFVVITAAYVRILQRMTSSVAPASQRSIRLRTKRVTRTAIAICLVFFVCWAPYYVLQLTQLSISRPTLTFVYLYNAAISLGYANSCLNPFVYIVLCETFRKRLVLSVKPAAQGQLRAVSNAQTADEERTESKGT
Put plainly: CEREP panel. The format is binding.

Another series has as its target T5, MC5 (Homo sapiens, UniProt P33032).
T5 construct: CEREP (contract assay)
Put plainly: CEREP panel. The format is binding.

The target of a further series is T6, D2S (h) (Homo sapiens, UniProt P14416).
T6 construct: CEREP (contract assay)
T6 sequence (P14416 1-414 isoform P14416-2): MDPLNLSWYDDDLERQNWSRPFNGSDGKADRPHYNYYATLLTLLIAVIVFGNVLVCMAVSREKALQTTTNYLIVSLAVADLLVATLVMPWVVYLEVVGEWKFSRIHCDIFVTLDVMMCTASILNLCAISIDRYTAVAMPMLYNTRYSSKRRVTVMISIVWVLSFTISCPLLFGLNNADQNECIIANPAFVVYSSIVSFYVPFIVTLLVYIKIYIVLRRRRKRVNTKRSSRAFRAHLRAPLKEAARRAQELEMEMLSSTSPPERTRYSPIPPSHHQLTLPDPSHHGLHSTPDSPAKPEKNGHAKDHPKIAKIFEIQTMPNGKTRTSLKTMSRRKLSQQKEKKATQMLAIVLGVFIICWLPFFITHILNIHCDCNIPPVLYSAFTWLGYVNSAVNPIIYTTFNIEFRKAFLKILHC
Put plainly: CEREP panel. The following applies: 10 µM. The format is binding.

The target of a further series is T7, dopamine uptake reporter (Homo sapiens, UniProt Q01959).
T7 construct: CEREP
T7 sequence (Q01959 whole entry): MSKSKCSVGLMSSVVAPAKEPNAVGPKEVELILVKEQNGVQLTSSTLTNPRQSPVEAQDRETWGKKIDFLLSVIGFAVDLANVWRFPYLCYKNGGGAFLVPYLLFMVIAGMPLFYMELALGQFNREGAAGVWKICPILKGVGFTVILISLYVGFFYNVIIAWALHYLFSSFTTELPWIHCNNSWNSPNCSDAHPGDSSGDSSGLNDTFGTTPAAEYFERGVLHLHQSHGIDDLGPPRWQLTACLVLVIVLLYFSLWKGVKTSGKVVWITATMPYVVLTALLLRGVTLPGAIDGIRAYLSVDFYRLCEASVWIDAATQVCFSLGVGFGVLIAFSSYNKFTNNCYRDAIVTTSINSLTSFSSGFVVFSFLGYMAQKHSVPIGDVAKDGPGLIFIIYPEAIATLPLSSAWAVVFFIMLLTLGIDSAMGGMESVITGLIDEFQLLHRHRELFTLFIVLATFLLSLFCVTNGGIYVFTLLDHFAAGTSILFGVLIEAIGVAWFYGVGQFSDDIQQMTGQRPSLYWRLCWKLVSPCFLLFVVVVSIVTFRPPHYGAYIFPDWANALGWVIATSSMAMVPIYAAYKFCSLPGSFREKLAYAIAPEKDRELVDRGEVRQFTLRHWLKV
Nature of the series: Dopamine uptake full dose-response (CEREP follow-up).

Another series deals with T8, H1 (h) (Homo sapiens, UniProt P35367).
T8 construct: CEREP (contract assay)
T8 sequence (P35367 whole entry): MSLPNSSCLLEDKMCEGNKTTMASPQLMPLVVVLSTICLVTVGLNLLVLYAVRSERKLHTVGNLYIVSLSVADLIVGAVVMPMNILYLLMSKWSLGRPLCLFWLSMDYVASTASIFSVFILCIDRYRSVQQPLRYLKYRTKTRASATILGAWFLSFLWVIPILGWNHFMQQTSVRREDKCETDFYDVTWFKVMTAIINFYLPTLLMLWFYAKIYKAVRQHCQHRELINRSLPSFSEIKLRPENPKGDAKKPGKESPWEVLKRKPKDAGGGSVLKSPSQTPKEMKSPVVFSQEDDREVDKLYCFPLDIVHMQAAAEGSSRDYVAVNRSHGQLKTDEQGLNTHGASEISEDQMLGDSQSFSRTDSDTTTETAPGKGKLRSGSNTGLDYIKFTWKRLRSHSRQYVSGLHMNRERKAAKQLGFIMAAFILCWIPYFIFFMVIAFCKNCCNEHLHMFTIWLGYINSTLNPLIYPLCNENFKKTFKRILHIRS
Nature of the series: CEREP panel. The format is binding. The settings on record: 10 µM.

Each structure is given as a SMILES string.

As usually defined, the Cmax is the highest concentration seen after dosing. The Tmax is the time at which the peak concentration occurs. By inhibition is commonly meant the relative decrease from the control value, in per cent. By IC50 is commonly meant the midpoint of a concentration-inhibition curve.

T1 sequence (P29275 whole entry): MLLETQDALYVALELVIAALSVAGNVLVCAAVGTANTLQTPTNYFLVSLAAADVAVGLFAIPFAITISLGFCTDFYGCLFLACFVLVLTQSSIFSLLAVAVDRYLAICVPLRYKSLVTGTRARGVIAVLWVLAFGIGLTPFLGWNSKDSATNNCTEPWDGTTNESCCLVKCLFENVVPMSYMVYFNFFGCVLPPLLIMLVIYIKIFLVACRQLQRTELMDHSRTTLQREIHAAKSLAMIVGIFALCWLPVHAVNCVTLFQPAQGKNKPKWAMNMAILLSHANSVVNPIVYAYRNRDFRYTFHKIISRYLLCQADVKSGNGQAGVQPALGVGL
T2 sequence (P46663 whole entry): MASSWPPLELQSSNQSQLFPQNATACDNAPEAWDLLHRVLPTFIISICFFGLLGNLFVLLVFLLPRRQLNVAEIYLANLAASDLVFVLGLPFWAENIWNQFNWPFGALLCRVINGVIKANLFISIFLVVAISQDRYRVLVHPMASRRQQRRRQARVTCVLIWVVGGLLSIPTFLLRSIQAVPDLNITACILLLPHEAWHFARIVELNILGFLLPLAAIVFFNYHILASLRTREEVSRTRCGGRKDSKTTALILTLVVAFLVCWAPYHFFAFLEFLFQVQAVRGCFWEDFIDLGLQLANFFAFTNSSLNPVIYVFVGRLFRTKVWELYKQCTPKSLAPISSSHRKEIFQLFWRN
T5 sequence (P33032 whole entry): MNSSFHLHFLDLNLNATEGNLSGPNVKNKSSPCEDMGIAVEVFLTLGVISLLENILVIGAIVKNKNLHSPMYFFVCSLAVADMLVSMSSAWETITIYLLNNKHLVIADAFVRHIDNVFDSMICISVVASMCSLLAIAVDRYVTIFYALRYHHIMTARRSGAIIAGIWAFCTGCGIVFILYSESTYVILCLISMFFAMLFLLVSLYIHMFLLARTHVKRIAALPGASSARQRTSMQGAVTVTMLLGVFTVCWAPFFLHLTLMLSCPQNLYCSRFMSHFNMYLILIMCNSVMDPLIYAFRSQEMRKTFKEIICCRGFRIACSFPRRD

Take `CCCC(C)(C)c1ccc2c(c1)OC(C)(C)[C@@H]1CC=C(C)C[C@@H]21` [JWH133]: in [1], the AUCinf/dose was determined as 583 kg·ng·h/mL/mg, the AUClast worked out at 3330 ng·h/mL and the T1/2 amounted to 2.7 h. In [1] (6.0 mg/kg), the Cmax was found to be 2070 ng/mL and the Tmax turned out to be 1.1 h.

For the compound `Cc1c(C(=O)NN2CCCCC2)nn(-c2ccc(Cl)cc2Cl)c1-c1ccc(Cl)cc1` [SR141716A], the inhibition at 10 µM against A2B is -7%; at B1 it was -3%; on MC3, 53%; against MCH1, -12%; against MC5 it was 39%. The “% inhibition PR” value with PR was determined as 12%.

As for `Cc1ccc2c(c1)Cc1c(C(=O)NN3CCCCC3)nn(-c3ccc(Cl)cc3Cl)c1-2` [Gp-1a], the “% inhibition D2S (h)” value at D2S (h) came out at 53%.

In the case of `CCCCCCC(C)(C)c1cc(OC)c(C2=C[C@H]3CC[C@]2(CO)C3(C)C)c(OC)c1` [HU910], the IC50 on dopamine uptake reporter was 1400 nM.

Turning to `CN1CCCC[C@H]1Cn1cc(C(=O)c2cc([N+](=O)[O-])ccc2I)c2ccccc21` [(S)-AM1241], the “% inhibition H1 (h)” value on H1 (h) is 78%.
